According to paper PMC9570995, “Design, Synthesis, and Biological Evaluation of Novel Dihydropyridine and Pyridine Analogs as Potent Human Tissue Nonspecific Alkaline Phosphatase Inhibitors with Anticancer Activity: ROS and DNA Damage-Induced Apoptosis” (Molecules, 2022):

Experiments:
Assay type in all cases: cell-based
[1] = system: Cervical Cancer (HeLa) Cells; experiment: MTT cell viability assay, HeLa; details: Homo sapiens, HeLa
Source text: (§1) An MTT assay was used to determine the viability of the cells under examination in the desired medium. The mitochondrial dehydrogenase enzyme of the viable cells has a key role in the conversion of the yellow water-soluble substrate 3-(4,5-dimethylthiazol-2-y1)-2,5 diphenyl tetrazolium bromide (MTT) into a dark blue formazan product that is insoluble in water. The anticancer activity of the novel synthetic derivatives (4a–4k) was investigated through an MTT assay, with small modifications following the already published protocols against cancer cell lines (HeLa and MCF-7), using cisplatin as a reference drug. The cytotoxic effect of the tested compounds at 100 µM concentration was determined and represented as the percent growth inhibition compared with the untreated control cells. The first series comprised dihydropyridines analogous from 4a–4f with various substitution patterns on the phenyl ring. […] It is presumed that the 1-naphthyl containing compound 4c was locked in a configuration that is not favorable for an interaction with amino acid residues.
(§2) The anti-proliferative activity of the synthesized compounds was determined in MCF-7 and HeLa cells by an MTT cell viability assay, as described earlier. Briefly, we seeded 1 × 10^4 cells/well in a sterile 96-well culture microtiter plate and incubated them in a 5% CO2 incubator at 37 °C for 24 h. […] After 24 h, the cells were treated with 0.2 mg/mL of MTT reagent for 4 h. We added 10% acidified SDS (sodium dodecyl sulfate) solubilizing solution in propanol (1:1) to solubilize the formazan crystals. After 30 min at 37 °C, the plate was placed on a gyratory shaker to completely dissolve the formazan crystals. The plate was placed on a microplate reader to measure the optical density at 570 nm. The IC50 values were calculated from three independent experiments as previously reported.

[2] = system: Breast Cancer (MCF-7) Cells; experiment: MTT cell viability assay, MCF-7; details: Homo sapiens
Source text: as §1, §2

HeLa cells [3] = experiment: Fluorescence microscopy of cytotoxic and pro-apoptotic effect (PI and DAPI staining)
Source text: Change in the cellular morphology, initially characterized by cell shrinkage, chromatin condensation, and degradation of the nuclear and plasma membranes, was mostly observed in the programmed cell death. The propidium iodide (PI) staining agent is a fluorescent molecule that penetrates the cancerous cells through ruptured membranes and binds with DNA. Similarly, the subsequent image offers red nuclei contrary to the dark background that indicates the counts of dead cells. On the other hand, viable cells have an intact cell membrane that resists the penetration of the staining agent (PI). Herein, the anticancer potential of the highly functionalized small dihydropyridine scaffold 4d was noticed through the apoptosis induction pathway based on various mechanisms. […] The detachment of cells and appearance of yellow intense fluorescence images on the dark background specify the distribution of PI into the dying cells in a dose-reliant mode.
The apoptotic feature, particularly the condensation of nuclear material, was also observed through the fluorescence microscopic evaluation of compound 4d-treated HeLa cells using 4′,6-diamidino-2-phenylindole (DAPI) as a staining agent. […] The fluorescence intensity enhances many folds upon binding with DNA. The extent of damage in the compound-treated cells was easily measured through an increase in the fluorescence emission intensity. […]

HeLa cells [4] = experiment: Microscopic evaluation of ROS generation (H2DCF-DA); details: IC50 and 2 × IC50, versus control
Source text: The production of reactive oxygen species (ROS) has been an extensively researched topic in medicinal chemistry due to their involvement in numerous biochemical phases of health and disease. In a biological system, redox-sensitive fluorogenic materials such as 2′,7′-dichlorodihydrofluorescein-diacetate (DCFH2-DA) are commonly used to investigate the production of ROS during oxidative stress. It easily penetrates through the cell membrane, where esterase enzyme hydrolyzes the acetate group to a more hydrophilic group, which further oxidizes in the cytoplasmic region to give rise to a highly fluorescent product. In this study, the HeLa cells were used to investigate the production of ROS. The non-fluorescent material 2′,7′-dichlorodihydrofluorescein (DCFH2) converts into the fluorescent 2′,7′-dichlorofluorescein (DCF) under intracellular oxidative stress.
The production of reactive oxygen species (ROS) in compound 4d-treated HeLa cells was observed by applying a published protocol with some modifications. Cells at a density of 2 × 10^5 cells/well/mL were grown on round coverslips in a 24-well plate and kept in an incubator having humid 5% CO2 and 95% air at 37 °C. […] Cells were gently washed with PBS to remove excess dye, and images were captured at a magnification of 20× using excitation/emission filters at 488/530 nm with the help of a fluorescence microscope (Nikon ECLIPSE Ni–U).

IC50 ([1]; unit given, read-out: Cervical Cancer (HeLa) Cells IC50 Values ± SEM): 53.47 ± 0.5 µM
IC50 ([2]; MCF7, unit given, read-out: Breast Cancer (MCF-7) Cells IC50 Values ± SEM): 38.7 ± 2.31 µM
SMILES: N#CC1=C(N)N(Cc2ccccc2)C(N)=C(C#N)C1c1ccc2ccccc2c1 [Compound 4d, 2,6-Diamino-1-benzyl-4-(naphthalen-2-yl)-1,4-dihydropyridine-3,5-dicarbonitrile]
inhibition at 100 µM ([1]; 100 µM, 24 h): 82.7%
inhibition at 100 µM ([2]; MCF7, 100 µM, 24 h): 85.8%
IC50 (HeLa cells [3]; Homo sapiens, read-out: IC50 (cytotoxic potential, fluorescence microscopy with PI staining)): 28.3 µM
morphological change of treated cells (DAPI staining) (HeLa cells [3]; IC50 and 2 × IC50): cellular shrinkage and nuclear condensation in a dose-dependent manner
production of ROS (HeLa cells [4]): dose-dependent increase
